Measurements as given in ChEMBL document CHEMBL5357023, “Synthesis and Evaluation of Benzylamine Inhibitors of Neuropathogenic Naegleria fowleri "Brain-Eating" Amoeba” (ACS Med Chem Lett, 2024).
Converted amounts (≈) assume the structure as drawn.

Key:
Naegleria fowleri [1] = assay: Anti-ameobic activity against Naegleria fowleri NF69 ATCC 30215 assessed as growth inhibition incubated for 48 hrs relative to control; type: functional, organism-based; details: for growth inhibition (GI): time 48 hrs
SH-SY5Y [2] = assay: Cytotoxicity against human SH-SY5Y cells assessed as reduction in cell viability at 20 uM incubated for 72 hrs by celltiter glow assay; type: functional
Naegleria fowleri [3] = assay: Anti-ameobic activity against Naegleria fowleri NF69 ATCC 30215 incubated for 48 hrs; type: functional, organism-based; details: NF69 ATCC 30215, 48 h
SH-SY5Y [4] = assay: Cytotoxicity against human SH-SY5Y cells assessed as reduction in cell viability at 1 uM incubated for 72 hrs by celltiter glow assay; type: functional
[5] = Lipophilicity, log D of the compound in octanol/phosphate buffer at pH 7.4 incubated for 2 mins by LC-MS analysis; type: physicochemical
[6] = Kinetic solubility of compound in phosphate buffer at pH 7.4 incubated for 24 hrs by HPLC analysis; type: physicochemical; details: read-out: Kinetic_solubility
SH-SY5Y [7] = assay: Cytotoxicity against human SH-SY5Y cells assessed as reduction in cell viability incubated for 72 hrs by celltiter glow assay; type: functional
[8] = Microsomal stability in CD-1 mouse liver microsome assessed as half life preincubated for 60 mins followed by NADPH addition and measured after 60 mins by HPLC analysis; type: ADME; details: liver microsomes, time 120 min
[9] = Stability in CD-1 mouse plasma assessed as parent compound remaining incubated for 20 mins by LC-MS analysis; type: ADME, cell-free; details: read-out: Stability
[10] = Plasma protein binding in CD-1 mouse measured for 4 hrs by LC-MS/MS analysis; type: ADME, cell-free; details: read-out: PPB (converted)
[11] = Permeability of compound incubated for 18 hrs by PAMPA assay; type: ADME; details: read-out: permeability

SMILES | EC50 (Naegleria fowleri [3]) | Cell viability remaining (SH-SY5Y [2]) | growth inhibition (GI) (Naegleria fowleri [1]) | Activity (SH-SY5Y [4]) | also measured
CC(C)(C)c1ccc(C(=O)Nc2cc(Cl)cnc2C(=O)[O-])cc1.[Na+] | – | 61% | – | – | EC50 (Naegleria fowleri [1]; Naegleria fowleri, NF69 ATCC 30215, 48 h): > 10 µM
COc1ccc(CNc2cc(Cl)cnc2C(=O)O)cc1 | > 10 µM | 95% | 6.6% | 98% | –
COc1ccc(CCNc2cc(Cl)cnc2C(=O)O)cc1 | > 10 µM | 71% | 12.9% | 95% | –
CC(C)(C)c1ccc(CNc2cncc(Cl)c2)cc1 | > 10 µM | 88% | 17.6% | 100% | –
CC(C)(C)c1ccc(CNc2cc(Cl)c(-c3ccccc3)nc2C(=O)O)cc1 | > 10 µM | 82% | 20.4% | 100% | –
CC(C)(C)c1ccc(CNc2cc(-c3ccccc3)cnc2C(=O)O)cc1 | 5 µM | 81% | 99.3% | 100% | –
CC(C)(C)c1ccc(CNc2cc(Cl)cnc2C(=O)O)s1 | > 10 µM | 90% | 0% | 95% | –
CC(C)(C)c1ccc(CNc2cc(N3CCOCC3)cnc2C(=O)O)cc1 | 11.5 µM | 75% | 52.8% | 85% | –
CC(C)(C)c1ccc(CNc2scnc2C(=O)O)cc1 | > 10 µM | – | – | – | –
CC(C)(C)c1ncc(CNc2cc(Cl)cnc2C(=O)O)s1 | > 10 µM | 67% | 0% | 95% | –
CC(C)(C)c1ccc(CNc2cc(Cl)c(Cl)nc2C(=O)O)cc1 | > 10 µM | 100% | 12.3% | 100% | –
CC(C)(C)c1ccc(CNc2cc(Cl)c(Br)nc2C(=O)O)cc1 | > 10 µM | 100% | 17.6% | 100% | –
O=C(O)c1ncc(Cl)cc1NCc1ccccc1 | > 10 µM | 95% | 0% | 95% | –
O=C(O)c1ncc(Cl)cc1NCc1ccc(F)cc1 | > 10 µM | 100% | 22.8% | 93% | –
NC(=O)N1c2ccccc2C=Cc2ccccc21 [CARBAMAZEPINE] | – | – | – | – | Papp at 18 h [11]: 6.63 ×10⁻⁶ cm/s
CCCCCCCCCCCCCCCCOP(=O)([O-])OCC[N+](C)(C)C [MILTEFOSINE] | 35.7 µM | – | – | – | –
CC(C)(C)NCC(O)COc1cccc2c1CC(O)C(O)C2 (stereo unspecified) [NADOLOL] | – | – | – | – | Papp at 18 h [11]: < 0.01 ×10⁻⁶ cm/s

More lines, main results first:

EC50 (Naegleria fowleri [3]) | SMILES | Cell viability remaining (SH-SY5Y [2]) | growth inhibition (GI) (Naegleria fowleri [1]) | Activity (SH-SY5Y [4]) | also measured
> 10 µM | CC(C)(C)c1ccc(CNc2cc(Cl)ncc2C(=O)O)cc1 | – | – | – | –
> 10 µM | CC(C)(C)c1ccc(S(=O)(=O)Nc2cc(Cl)cnc2C(=O)O)cc1 | 100% | 16.5% | 100% | –
> 10 µM | CC(C)(C)c1ccc(CNc2cc(Cl)cnc2C(N)=O)cc1 | 77% | 27.7% | 100% | –
> 10 µM | CC(C)(C)c1ccc(CCc2cc(Cl)cnc2C(=O)O)cc1 | 85% | 0% | 100% | –
> 10 µM | CC(Nc1cc(Cl)cnc1C(=O)O)c1ccc(C(C)(C)C)cc1 (stereo unspecified) | 100% | 38.2% | 98% | –
5 µM | CC(C)(C)c1ccc(CNc2cc(F)cnc2C(=O)O)cc1 | 73% | 99.5% | 91% | –
> 10 µM | CC(C)(C)c1ccc(CC(=O)Nc2cc(Cl)cnc2C(=O)O)cc1 | 19% | 9.9% | 76% | –
> 10 µM | CC(C)(C)c1ccc(Nc2cc(Cl)cnc2C(=O)O)cc1 | 57% | 4.5% | 98% | –
3.3 µM | CC(C)(C)c1ccc(CCNc2cc(Cl)cnc2C(=O)O)cc1 | 100% | 99.8% | 95% | –
> 10 µM | O=C(O)c1ncc(Cl)cc1NCCc1ccc(C(F)(F)F)cc1 | 57% | 44.8% | 59% | –
1.4 µM | Cc1cnc(C(=O)O)c(NCc2ccc(C(C)(C)C)cc2)c1 | 98% | 100.4% | 96% | logD at 2 min [5]: 2.4; solubility kinetic at 24 h [6]: 208 µM (≈ 62.1 µg/mL); CC50 (SH-SY5Y [7]): > 20 µM; half-life [8]: 49 min
> 10 µM | CC(C)(C)c1ccc(CNc2cc(Cl)cnc2C#N)cc1 | 57% | 22.2% | 96% | –
1.1 µM | COc1cnc(C(=O)O)c(NCCc2ccc(C(C)(C)C)cc2)c1 | 57% | 100.4% | 87% | –
> 10 µM | O=C(O)c1ncc(Cl)cc1NCc1ccc(C(F)(F)F)cc1 | 66% | 29.5% | 78% | –
3 µM | CC(C)(C)c1ccc(CNc2cccnc2C(=O)O)cc1 | 89% | 99.2% | 100% | –
> 10 µM | CC(C)(C)c1ccc(CNc2cncnc2C(=O)O)cc1 | – | – | – | –
0.92 µM | COc1cnc(C(=O)O)c(NCc2ccc(C(C)(C)C)cc2)c1 | 100% | 100.3% | 98% | logD at 2 min [5]: 2.3; remaining at 20 min [9]: 92%; solubility kinetic at 24 h [6]: 199 µM (≈ 62.6 µg/mL); fraction unbound at 4 h [10]: 0.003; CC50 (SH-SY5Y [7]): > 20 µM; half-life [8]: 72 min; Papp at 18 h [11]: 9.69 ×10⁻⁶ cm/s
6 µM | CC(C)(C)c1ccc(CNc2cc(Cl)cnc2C(=O)O)cc1 | 53% | 98.8% | 85% | logD at 2 min [5]: 2.3; remaining at 20 min [9]: 93%; solubility kinetic at 24 h [6]: 84 µM (≈ 26.8 µg/mL); fraction unbound at 4 h [10]: 0.009; CC50 (SH-SY5Y [7]): > 20 µM; half-life [8]: 38 min; Papp at 18 h [11]: 8.5 ×10⁻⁶ cm/s
7.2 µM | CC(C)(C)c1ccc(CNc2cc(Br)cnc2C(=O)O)cc1 | 85% | 84.4% | 99% | –
> 10 µM | Cc1ccc(CNc2cc(Cl)cnc2C(=O)O)cc1 | 94% | 0% | 100% | –
